Source: patent publication US20230085307A1, “PYRIDAZINONE COMPOUND AND HERBICIDE” (NISSAN CHEMICAL CORPORATION, priority 2019, published 2023)

Columns and labels:
barnyard grass [1] = assay: Test Example 3: herbicidal effect by foliage application, Wagner pot (Table 18, symbol H); format: in vivo, barnyard grass (Echinochloa crus-galli)
How it was run: (§1)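 Plants were sown in alluvial soil held under 0.1–0.5 cm standing water and grown 14 days in a greenhouse at 25–30 °C. An emulsifiable formulation, water-diluted to the set dose, was then sprayed onto the foliage, and effects were scored three weeks later using previously defined criteria.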

Chinese sprangletop = assay: Test Example 3: herbicidal effect by foliage application, Wagner pot (Table 18, symbol D); format: in vivo, chinese sprangletop (Leptochloa chinensis)
How it was run: as §1

rice flat sedge = assay: Test Example 3: herbicidal effect by foliage application, Wagner pot (Table 18, symbol E); format: in vivo, rice flat sedge (Cyperus iria)
How it was run: as §1

southern crabgrass [2] = assay: Test Example 4: herbicidal effect by soil treatment (Table 19, symbol F); format: in vivo, southern crabgrass (Digitaria ciliaris)
How it was run: (§2)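 Seeds were sown in sterilized diluvial soil and covered with about 1.5 cm of soil. An emulsion formulation diluted with water to a predetermined herbicide amount was sprayed evenly onto the soil surface. Plants grew in a greenhouse at 25° C. to 30° C., and the effect was scored three weeks after application using criteria from an earlier test.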

green foxtail [3] = assay: Test Example 4: herbicidal effect by soil treatment (Table 19, symbol G); format: in vivo, green foxtail (Setaria viridis)
How it was run: as §2

barnyard grass [4] = assay: Test Example 4: herbicidal effect by soil treatment (Table 19, symbol H); format: in vivo, barnyard grass (Echinochloa crus-galli)
How it was run: as §2

wild oat [5] = assay: Test Example 4: herbicidal effect by soil treatment (Table 19, symbol I); format: in vivo, wild oat (Avena fatua)
How it was run: as §2

blackgrass [6] = assay: Test Example 4: herbicidal effect by soil treatment (Table 19, symbol J); format: in vivo, blackgrass (Alopecurus myosuroides)
How it was run: as §2

Italian ryegrass [7] = assay: Test Example 4: herbicidal effect by soil treatment (Table 19, symbol K); format: in vivo, Italian ryegrass (Lolium multiflorum)
How it was run: as §2

windgrass [8] = assay: Test Example 4: herbicidal effect by soil treatment (Table 19, symbol L); format: in vivo, windgrass (Apera spica-venti)
How it was run: as §2

velvetleaf [9] = assay: Test Example 4: herbicidal effect by soil treatment (Table 19, symbol M); format: in vivo, velvetleaf (Abutilon theophrasti)
How it was run: as §2

redroot pigweed = assay: Test Example 4: herbicidal effect by soil treatment (Table 19, symbol N); format: in vivo, redroot pigweed (Amaranthus retroflexus)
How it was run: as §2

lambsquarters [10] = assay: Test Example 4: herbicidal effect by soil treatment (Table 19, symbol O); format: in vivo, lambsquarters (Chenopodium album)
How it was run: as §2

chickweed = assay: Test Example 4: herbicidal effect by soil treatment (Table 19, symbol P); format: in vivo, common chickweed (Stellaria media)
How it was run: as §2

persian speedwell [11] = assay: Test Example 4: herbicidal effect by soil treatment (Table 19, symbol R); format: in vivo, Persian speedwell (Veronica persica)
How it was run: as §2

southern crabgrass [12] = assay: Test Example 5: herbicidal effect by foliage application, plastic box (Table 20, symbol F); format: in vivo, southern crabgrass (Digitaria ciliaris); conditions: foliage application, three weeks after application
How it was run: (§3)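 Plants sown in sterilized diluvial soil and grown 14 days in a greenhouse at 25° C to 30° C, then sprayed on the foliage with the compound's emulsion diluted in water to a predetermined herbicide amount. Injury to weeds and crops scored three weeks after application on a visual rating scale.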

green foxtail [13] = assay: Test Example 5: herbicidal effect by foliage application, plastic box (Table 20, symbol G); format: in vivo, green foxtail (Setaria viridis); conditions: foliage application, three weeks after application
How it was run: as §3

barnyard grass [14] = assay: Test Example 5: herbicidal effect by foliage application, plastic box (Table 20, symbol H); format: in vivo, barnyard grass (Echinochloa crus-galli); conditions: foliage application, three weeks after application
How it was run: as §3

wild oat [15] = assay: Test Example 5: herbicidal effect by foliage application, plastic box (Table 20, symbol I); format: in vivo, wild oat (Avena fatua); conditions: foliage application, three weeks after application
How it was run: as §3

blackgrass [16] = assay: Test Example 5: herbicidal effect by foliage application, plastic box (Table 20, symbol J); format: in vivo, blackgrass (Alopecurus myosuroides); conditions: foliage application, three weeks after application
How it was run: as §3

Italian ryegrass [17] = assay: Test Example 5: herbicidal effect by foliage application, plastic box (Table 20, symbol K); format: in vivo, Italian ryegrass (Lolium multiflorum); conditions: foliage application, three weeks after application
How it was run: as §3

windgrass [18] = assay: Test Example 5: herbicidal effect by foliage application, plastic box (Table 20, symbol L); format: in vivo, windgrass (Apera spica-venti); conditions: foliage application, three weeks after application
How it was run: as §3

velvetleaf [19] = assay: Test Example 5: herbicidal effect by foliage application, plastic box (Table 20, symbol M); format: in vivo, velvetleaf (Abutilon theophrasti); conditions: foliage application, three weeks after application
How it was run: as §3

lambsquarters [20] = assay: Test Example 5: herbicidal effect by foliage application, plastic box (Table 20, symbol O); format: in vivo, lambsquarters (Chenopodium album); conditions: foliage application, three weeks after application
How it was run: as §3

false cleavers = assay: Test Example 5: herbicidal effect by foliage application, plastic box (Table 20, symbol Q); format: in vivo, false cleavers (Galium spurium); conditions: foliage application, three weeks after application
How it was run: as §3

persian speedwell [21] = assay: Test Example 5: herbicidal effect by foliage application, plastic box (Table 20, symbol R); format: in vivo, Persian speedwell (Veronica persica); conditions: foliage application, three weeks after application
How it was run: as §3

[22] = amount of applied herbicide 147 g/ha
[23] = amount of applied herbicide 320 g/ha

For `COc1ccccc1-c1oc2ccc(C)cc2c1-c1c(O)c(C)nn(C)c1=O` [9-006], the “Herbicidal effect on H (barnyard grass), foliage application” value (barnyard grass [1]; [22]) was 1 (Herbicidal rate of 5% or more and less than 20%), the “Herbicidal effect on D (Chinese sprangletop), foliage application” value (Chinese sprangletop; [22]) was 0 (Herbicidal rate of 5% or less (almost no effect)) and the “Herbicidal effect on E (rice flat sedge), foliage application” value (rice flat sedge; [22]) was 2 (Herbicidal rate of 20% or more and less than 40%). The “F: southern crabgrass, herbicidal effect grade” value (southern crabgrass [2]; [22]) was 0 (Herbicidal rate of 5% or less (almost no effect)), the “G: green foxtail, herbicidal effect grade” value (green foxtail [3]; [22]) was 0 (Herbicidal rate of 5% or less (almost no effect)) and the “H: barnyard grass, herbicidal effect grade” value (barnyard grass [4]; [22]) was 0 (Herbicidal rate of 5% or less (almost no effect)). The “I: wild oat, herbicidal effect grade” value (wild oat [5]; [22]) was 0 (Herbicidal rate of 5% or less (almost no effect)), the “J: blackgrass, herbicidal effect grade” value (blackgrass [6]; [22]) was 0 (Herbicidal rate of 5% or less (almost no effect)) and the “K: Italian ryegrass, herbicidal effect grade” value (Italian ryegrass [7]; [22]) was 0 (Herbicidal rate of 5% or less (almost no effect)). The “L: windgrass, herbicidal effect grade” value (windgrass [8]; [22]) was 0 (Herbicidal rate of 5% or less (almost no effect)), the “M: velvetleaf, herbicidal effect grade” value (velvetleaf [9]; [22]) was 0 (Herbicidal rate of 5% or less (almost no effect)) and the “N: redroot pigweed, herbicidal effect grade” value (redroot pigweed; [22]) was 3 (Herbicidal rate of 40% or more and less than 70%). For the same compound, the “O: lambsquarters, herbicidal effect grade” value (lambsquarters [10]; [22]) was 0 (Herbicidal rate of 5% or less (almost no effect)), the “P: chickweed, herbicidal effect grade” value (chickweed; [22]) was 0 (Herbicidal rate of 5% or less (almost no effect)) and the “R: persian speedwell, herbicidal effect grade” value (persian speedwell [11]; [22]) was 0 (Herbicidal rate of 5% or less (almost no effect)). The “herbicidal effect on southern crabgrass (F)” value (southern crabgrass [12]; 147 g/ha) was 0 (Herbicidal rate of 5% or less (almost no effect)), the “herbicidal effect on green foxtail (G)” value (green foxtail [13]; 147 g/ha) was 0 (Herbicidal rate of 5% or less (almost no effect)) and the “herbicidal effect on barnyard grass (H)” value (barnyard grass [14]; 147 g/ha) was 0 (Herbicidal rate of 5% or less (almost no effect)). The “herbicidal effect on wild oat (I)” value (wild oat [15]; 147 g/ha) was 0 (Herbicidal rate of 5% or less (almost no effect)), the “herbicidal effect on blackgrass (J)” value (blackgrass [16]; 147 g/ha) was 0 (Herbicidal rate of 5% or less (almost no effect)) and the “herbicidal effect on Italian ryegrass (K)” value (Italian ryegrass [17]; 147 g/ha) was 0 (Herbicidal rate of 5% or less (almost no effect)). For the same compound, the “herbicidal effect on windgrass (L)” value (windgrass [18]; 147 g/ha) was 0 (Herbicidal rate of 5% or less (almost no effect)), the “herbicidal effect on velvetleaf (M)” value (velvetleaf [19]; 147 g/ha) was 2 (Herbicidal rate of 20% or more and less than 40%) and the “herbicidal effect on lambsquarters (O)” value (lambsquarters [20]; 147 g/ha) was 0 (Herbicidal rate of 5% or less (almost no effect)). For the same compound, the “herbicidal effect on false cleavers (Q)” value (false cleavers; 147 g/ha) was 3 (Herbicidal rate of 40% or more and less than 70%) and the “herbicidal effect on persian speedwell (R)” value (persian speedwell [21]; 147 g/ha) was 0 (Herbicidal rate of 5% or less (almost no effect)).

For `COc1cc(F)ccc1-c1oc2ccc(C)cc2c1-c1c(O)c(C)nn(C)c1=O` [9-009], the “Herbicidal effect on H (barnyard grass), foliage application” value (barnyard grass [1]; [23]) was 3 (Herbicidal rate of 40% or more and less than 70%), the “Herbicidal effect on D (Chinese sprangletop), foliage application” value (Chinese sprangletop; [23]) was 0 (Herbicidal rate of 5% or less (almost no effect)) and the “Herbicidal effect on E (rice flat sedge), foliage application” value (rice flat sedge; [23]) was 1 (Herbicidal rate of 5% or more and less than 20%). The “F: southern crabgrass, herbicidal effect grade” value (southern crabgrass [2]; [23]) was 2 (Herbicidal rate of 20% or more and less than 40%), the “G: green foxtail, herbicidal effect grade” value (green foxtail [3]; [23]) was 3 (Herbicidal rate of 40% or more and less than 70%) and the “H: barnyard grass, herbicidal effect grade” value (barnyard grass [4]; [23]) was 3 (Herbicidal rate of 40% or more and less than 70%). For the same compound, the “I: wild oat, herbicidal effect grade” value (wild oat [5]; [23]) was 0 (Herbicidal rate of 5% or less (almost no effect)), the “J: blackgrass, herbicidal effect grade” value (blackgrass [6]; [23]) was 0 (Herbicidal rate of 5% or less (almost no effect)) and the “K: Italian ryegrass, herbicidal effect grade” value (Italian ryegrass [7]; [23]) was 0 (Herbicidal rate of 5% or less (almost no effect)). For the same compound, the “L: windgrass, herbicidal effect grade” value (windgrass [8]; [23]) was 0 (Herbicidal rate of 5% or less (almost no effect)), the “M: velvetleaf, herbicidal effect grade” value (velvetleaf [9]; [23]) was 0 (Herbicidal rate of 5% or less (almost no effect)) and the “N: redroot pigweed, herbicidal effect grade” value (redroot pigweed; [23]) was 0 (Herbicidal rate of 5% or less (almost no effect)). The “O: lambsquarters, herbicidal effect grade” value (lambsquarters [10]; [23]) was 3 (Herbicidal rate of 40% or more and less than 70%), the “P: chickweed, herbicidal effect grade” value (chickweed; [23]) was 0 (Herbicidal rate of 5% or less (almost no effect)) and the “R: persian speedwell, herbicidal effect grade” value (persian speedwell [11]; [23]) was 0 (Herbicidal rate of 5% or less (almost no effect)). For the same compound, the “herbicidal effect on southern crabgrass (F)” value (southern crabgrass [12]; 320 g/ha) was 2 (Herbicidal rate of 20% or more and less than 40%), the “herbicidal effect on green foxtail (G)” value (green foxtail [13]; 320 g/ha) was 2 (Herbicidal rate of 20% or more and less than 40%) and the “herbicidal effect on barnyard grass (H)” value (barnyard grass [14]; 320 g/ha) was 3 (Herbicidal rate of 40% or more and less than 70%). The “herbicidal effect on wild oat (I)” value (wild oat [15]; 320 g/ha) was 2 (Herbicidal rate of 20% or more and less than 40%), the “herbicidal effect on blackgrass (J)” value (blackgrass [16]; 320 g/ha) was 0 (Herbicidal rate of 5% or less (almost no effect)) and the “herbicidal effect on Italian ryegrass (K)” value (Italian ryegrass [17]; 320 g/ha) was 1 (Herbicidal rate of 5% or more and less than 20%). For the same compound, the “herbicidal effect on windgrass (L)” value (windgrass [18]; 320 g/ha) was 0 (Herbicidal rate of 5% or less (almost no effect)), the “herbicidal effect on velvetleaf (M)” value (velvetleaf [19]; 320 g/ha) was 2 (Herbicidal rate of 20% or more and less than 40%) and the “herbicidal effect on lambsquarters (O)” value (lambsquarters [20]; 320 g/ha) was 3 (Herbicidal rate of 40% or more and less than 70%). For the same compound, the “herbicidal effect on false cleavers (Q)” value (false cleavers; 320 g/ha) was 4 (Herbicidal rate of 70% or more and less than 90%) and the “herbicidal effect on persian speedwell (R)” value (persian speedwell [21]; 320 g/ha) was 3 (Herbicidal rate of 40% or more and less than 70%).
